For five compounds, % of control and % of inhibition results are on record in ChEMBL document CHEMBL5465560, “Selectivity Literature for EUbOPEN Chemogenomic Library” (2024).

Assay [1] deals with T1, Serine/threonine-protein kinase 36 (Homo sapiens) (UniProt Q9NRP7).
T1 sequence (whole entry): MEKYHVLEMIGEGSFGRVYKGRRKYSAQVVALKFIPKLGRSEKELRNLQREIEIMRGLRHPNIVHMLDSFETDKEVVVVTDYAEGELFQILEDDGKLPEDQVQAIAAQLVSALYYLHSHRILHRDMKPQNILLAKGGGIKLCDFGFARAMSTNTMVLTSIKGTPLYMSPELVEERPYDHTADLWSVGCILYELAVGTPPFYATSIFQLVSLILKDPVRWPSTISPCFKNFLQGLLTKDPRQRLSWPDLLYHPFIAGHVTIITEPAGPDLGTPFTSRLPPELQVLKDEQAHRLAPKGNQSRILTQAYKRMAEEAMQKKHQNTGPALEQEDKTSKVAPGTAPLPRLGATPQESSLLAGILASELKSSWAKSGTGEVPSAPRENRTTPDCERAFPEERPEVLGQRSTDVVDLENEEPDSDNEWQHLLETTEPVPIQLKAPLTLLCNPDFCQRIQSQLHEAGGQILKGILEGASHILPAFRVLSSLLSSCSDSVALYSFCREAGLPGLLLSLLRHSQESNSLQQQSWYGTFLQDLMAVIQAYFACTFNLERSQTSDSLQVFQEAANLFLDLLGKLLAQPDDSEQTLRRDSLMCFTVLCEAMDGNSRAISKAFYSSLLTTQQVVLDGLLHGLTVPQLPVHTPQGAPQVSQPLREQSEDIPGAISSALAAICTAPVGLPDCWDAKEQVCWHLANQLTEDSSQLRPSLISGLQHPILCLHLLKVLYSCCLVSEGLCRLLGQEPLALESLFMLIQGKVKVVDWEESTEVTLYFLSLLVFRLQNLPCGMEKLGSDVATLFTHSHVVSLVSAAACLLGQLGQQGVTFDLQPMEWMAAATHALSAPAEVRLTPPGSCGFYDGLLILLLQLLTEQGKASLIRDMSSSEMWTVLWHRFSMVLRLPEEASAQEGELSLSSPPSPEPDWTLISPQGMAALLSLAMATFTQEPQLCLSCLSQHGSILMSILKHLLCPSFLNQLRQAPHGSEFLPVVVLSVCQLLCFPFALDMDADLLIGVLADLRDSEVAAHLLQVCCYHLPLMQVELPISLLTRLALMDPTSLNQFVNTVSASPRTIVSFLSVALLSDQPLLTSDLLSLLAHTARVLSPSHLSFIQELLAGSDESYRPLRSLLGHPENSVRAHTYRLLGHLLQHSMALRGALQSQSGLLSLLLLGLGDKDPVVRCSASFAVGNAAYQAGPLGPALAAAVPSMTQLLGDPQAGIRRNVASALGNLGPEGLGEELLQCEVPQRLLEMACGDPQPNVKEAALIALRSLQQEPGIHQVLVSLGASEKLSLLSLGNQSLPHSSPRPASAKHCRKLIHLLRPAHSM
The following applies: at 10 µM.

Assay [2] concerns the target T2, Mitogen-activated protein kinase kinase kinase 2 (Homo sapiens) (UniProt Q9Y2U5).
T2 sequence (whole entry): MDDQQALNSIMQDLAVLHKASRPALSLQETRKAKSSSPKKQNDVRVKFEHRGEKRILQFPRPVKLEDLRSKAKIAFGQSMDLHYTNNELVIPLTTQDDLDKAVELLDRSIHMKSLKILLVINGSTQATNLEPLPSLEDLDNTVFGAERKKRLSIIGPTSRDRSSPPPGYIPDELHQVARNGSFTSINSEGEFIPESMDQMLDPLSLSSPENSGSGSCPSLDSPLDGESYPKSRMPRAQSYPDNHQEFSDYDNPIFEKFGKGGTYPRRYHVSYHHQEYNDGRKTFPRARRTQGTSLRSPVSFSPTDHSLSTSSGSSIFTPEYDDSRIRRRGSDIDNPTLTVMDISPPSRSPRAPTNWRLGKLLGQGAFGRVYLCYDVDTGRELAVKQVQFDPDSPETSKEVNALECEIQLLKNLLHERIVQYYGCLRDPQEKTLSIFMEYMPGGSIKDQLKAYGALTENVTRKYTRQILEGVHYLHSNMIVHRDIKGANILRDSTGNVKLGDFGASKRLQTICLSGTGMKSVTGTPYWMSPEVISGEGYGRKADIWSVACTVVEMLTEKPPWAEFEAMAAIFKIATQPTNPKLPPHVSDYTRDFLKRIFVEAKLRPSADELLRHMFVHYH
To be noted: at 10 µM.

The target in assay [3] is Protein kinase C delta type (Homo sapiens) (UniProt Q05655). Kind of assay: Selectivity interaction (KinomeScan (DiscoverX)) EUB0001079a PRKCD. To be noted: at 1 µM.
Sequence of Protein kinase C delta type (Homo sapiens) (Q05655 whole entry, looked up): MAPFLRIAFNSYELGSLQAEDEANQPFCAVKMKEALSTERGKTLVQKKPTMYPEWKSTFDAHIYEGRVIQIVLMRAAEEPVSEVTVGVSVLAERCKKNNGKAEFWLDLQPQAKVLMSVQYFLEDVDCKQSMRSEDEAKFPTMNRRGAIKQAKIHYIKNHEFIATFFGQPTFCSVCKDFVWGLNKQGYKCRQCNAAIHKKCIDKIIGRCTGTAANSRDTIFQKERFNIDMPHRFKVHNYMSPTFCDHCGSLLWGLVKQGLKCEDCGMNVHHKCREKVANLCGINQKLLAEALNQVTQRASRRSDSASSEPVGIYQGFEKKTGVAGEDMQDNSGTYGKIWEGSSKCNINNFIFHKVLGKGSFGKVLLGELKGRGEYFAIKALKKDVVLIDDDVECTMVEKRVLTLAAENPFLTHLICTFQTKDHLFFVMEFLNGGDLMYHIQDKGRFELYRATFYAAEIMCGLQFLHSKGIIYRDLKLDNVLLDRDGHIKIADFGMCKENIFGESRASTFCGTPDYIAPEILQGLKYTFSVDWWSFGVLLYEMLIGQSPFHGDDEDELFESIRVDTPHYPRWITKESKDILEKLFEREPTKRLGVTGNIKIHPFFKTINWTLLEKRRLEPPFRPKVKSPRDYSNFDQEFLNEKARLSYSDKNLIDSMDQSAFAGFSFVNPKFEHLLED
Assay [4] addresses Mitogen-activated protein kinase kinase kinase kinase 1 (Homo sapiens) (UniProt Q92918). The assay is described as follows: Selectivity interaction (ActivX KiNativ screen (kinase selectivity in THP-1 cell lysates)) EUB0000639a MAP4K1. The class given is subcellular. To be noted: lysate, at 0.01 µM.
Assay [5] has as its target Ribosomal protein S6 kinase beta-1 (Homo sapiens, UniProt P23443). Kind of assay: Selectivity interaction (ActivX KiNativ screen (kinase selectivity in THP-1 cell lysates)) EUB0000639a RPS6KB1. It is filed as subcellular. To be noted: lysate, at 0.04 µM.
Assay [6] deals with Serine/threonine-protein kinase Nek7 (Homo sapiens) (UniProt Q8TDX7). The assay is described as follows: Selectivity interaction (KinomeScan (DiscoverX)) EUB0000695a NEK7. To be noted: at 100 nM.
Sequence of Serine/threonine-protein kinase Nek7 (Homo sapiens) (Q8TDX7 whole entry, looked up): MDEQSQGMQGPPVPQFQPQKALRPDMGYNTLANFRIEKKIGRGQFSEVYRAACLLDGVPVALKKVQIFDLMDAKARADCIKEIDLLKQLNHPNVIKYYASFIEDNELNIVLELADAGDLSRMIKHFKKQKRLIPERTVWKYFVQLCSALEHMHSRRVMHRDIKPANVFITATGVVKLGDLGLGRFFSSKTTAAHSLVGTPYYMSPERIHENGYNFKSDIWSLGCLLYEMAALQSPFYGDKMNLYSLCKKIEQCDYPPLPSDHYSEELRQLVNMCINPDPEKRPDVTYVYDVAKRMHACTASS
Assay [7] addresses T3, Serine/threonine-protein kinase Nek2 (Homo sapiens) (UniProt P51955).
T3 sequence (whole entry): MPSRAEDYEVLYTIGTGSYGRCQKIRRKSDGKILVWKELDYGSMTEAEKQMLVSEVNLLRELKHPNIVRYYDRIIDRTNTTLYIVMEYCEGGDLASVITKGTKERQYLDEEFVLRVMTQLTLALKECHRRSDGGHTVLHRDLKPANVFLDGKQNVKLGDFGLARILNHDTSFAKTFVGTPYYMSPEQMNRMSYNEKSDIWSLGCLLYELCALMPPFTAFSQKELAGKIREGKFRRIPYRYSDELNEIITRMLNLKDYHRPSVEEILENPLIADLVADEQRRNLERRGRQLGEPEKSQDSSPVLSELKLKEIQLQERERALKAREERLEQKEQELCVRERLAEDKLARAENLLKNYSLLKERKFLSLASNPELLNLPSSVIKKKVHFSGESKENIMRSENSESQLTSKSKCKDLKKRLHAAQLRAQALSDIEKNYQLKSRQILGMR
Kind of assay: Selectivity interaction (KinomeScan (DiscoverX)) EUB0000695a NEK2. The following applies: at 100 nM.

For assay [8], the target named is Cyclin-dependent kinase 4/cyclin D1 (Homo sapiens) (UniProt P11802+P24385). Kind of assay: (§1) Selectivity interaction (KinomeScan (DiscoverX)) EUB0000618a CDK4. The class given is protein-complex assay. The following applies: at 10 µM.
For assay [9], the target named is CDK4/Cyclin D3 (Homo sapiens) (UniProt P11802+P30281). The assay is described as §1. It is filed as protein-complex assay. To be noted: at 10 µM.

Sequence of Ribosomal protein S6 kinase beta-1 (P23443 whole entry, looked up): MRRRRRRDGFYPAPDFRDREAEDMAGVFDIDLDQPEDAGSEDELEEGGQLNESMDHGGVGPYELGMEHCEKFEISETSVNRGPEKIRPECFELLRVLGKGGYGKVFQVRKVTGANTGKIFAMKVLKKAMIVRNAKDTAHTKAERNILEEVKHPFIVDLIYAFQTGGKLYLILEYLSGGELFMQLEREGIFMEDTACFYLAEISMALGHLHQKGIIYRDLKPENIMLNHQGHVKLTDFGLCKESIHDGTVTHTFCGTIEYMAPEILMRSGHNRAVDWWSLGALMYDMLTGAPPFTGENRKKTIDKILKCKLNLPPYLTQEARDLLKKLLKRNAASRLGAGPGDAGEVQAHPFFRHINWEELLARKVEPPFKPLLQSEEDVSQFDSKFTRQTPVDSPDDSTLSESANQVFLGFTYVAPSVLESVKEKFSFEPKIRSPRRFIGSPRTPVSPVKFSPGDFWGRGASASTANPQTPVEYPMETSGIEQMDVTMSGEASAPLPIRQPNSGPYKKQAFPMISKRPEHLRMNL
Sequence of Mitogen-activated protein kinase kinase kinase kinase 1 (Homo sapiens) (Q92918 whole entry, looked up): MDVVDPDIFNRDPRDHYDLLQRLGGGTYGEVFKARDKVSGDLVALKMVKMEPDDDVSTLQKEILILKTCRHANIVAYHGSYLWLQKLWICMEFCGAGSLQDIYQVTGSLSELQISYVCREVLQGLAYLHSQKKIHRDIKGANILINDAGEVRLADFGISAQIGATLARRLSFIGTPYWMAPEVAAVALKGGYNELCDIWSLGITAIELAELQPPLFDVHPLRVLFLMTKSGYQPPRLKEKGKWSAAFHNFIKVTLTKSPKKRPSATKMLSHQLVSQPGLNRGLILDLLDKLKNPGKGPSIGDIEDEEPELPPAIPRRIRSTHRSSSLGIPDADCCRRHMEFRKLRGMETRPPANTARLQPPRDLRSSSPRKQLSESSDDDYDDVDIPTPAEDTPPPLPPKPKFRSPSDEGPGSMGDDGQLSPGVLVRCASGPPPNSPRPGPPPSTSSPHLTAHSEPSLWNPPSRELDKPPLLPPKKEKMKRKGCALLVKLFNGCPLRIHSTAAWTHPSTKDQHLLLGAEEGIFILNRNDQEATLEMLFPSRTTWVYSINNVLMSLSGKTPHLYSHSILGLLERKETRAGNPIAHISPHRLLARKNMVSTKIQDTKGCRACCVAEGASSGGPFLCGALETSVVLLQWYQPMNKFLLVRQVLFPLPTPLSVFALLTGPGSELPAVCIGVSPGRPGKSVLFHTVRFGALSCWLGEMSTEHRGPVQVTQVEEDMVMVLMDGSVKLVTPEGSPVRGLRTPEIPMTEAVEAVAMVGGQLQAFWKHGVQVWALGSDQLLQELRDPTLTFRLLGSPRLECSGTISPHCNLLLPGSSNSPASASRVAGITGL

Consider `Cc1cc([C@@H](C)Nc2ccccc2C(=O)O)c2nc(N3CCOCC3)cc(=O)n2c1` [AZD-6482], for which the % of control in [1] and in assay [2] was 100% in each case.

Regarding `Nc1cnc(N2CCc3cc(S(=O)(=O)Nc4c(F)cc(Cl)cc4F)cc(N4CCCC4=O)c32)nc1` [TP-020n], the % of control in assay [3] was 86%. Turning to `CC[C@@H]1[C@H](F)C(=O)N[C@@H]1COc1nccc2cc(C(N)=O)c(OC)cc12` [ZIMLOVISERTIB], the % of inhibition in assay [4] amounted to 6.1%; in [5], 9.9%. For `Cc1cc(F)c(C(=O)Nc2cccc(-c3nncn3C(C)C)n2)cc1-n1cnc(C2CC2)c1`, the % of control in assay [6] and in assay [7] was 100% throughout. In the case of `O[C@H]1CC[C@H](Nc2ncc3nc(Nc4c(F)cc(F)cc4F)n([C@H]4CCOC4)c3n2)CC1`, the % of control in assay [8] was determined as 100%; in assay [9] it was 80%.
